Biological target: Trx-6×His-BCL6 (human BCL6 BTB domain covering amino-acid sequence 5-129) (Homo sapiens (Human), UniProt P41182)
Assay: HTRF in vitro assay (BCL6 / BCOR-AF633 peptide)
Format: binding
Conditions: for activity in the HTRF assay: result in words
Experimental: The % inhibition at each concentration was calculated by normalising FRET ratio to the appropriate high (DMSO with all reagents) and low (DMSO without BCL6) controls.

[1] = further generated data, 1 nM Trx-6×His-BCL6, 300 nM BCOR-AF633 peptide, 0.5 nM anti-6×His-Terbium cryptate
[2] = initially generated data, 10 nM Trx-6×His-BCL6, 300 nM BCOR-AF633 peptide, 1 nM anti-6×His-Terbium cryptate

Row | SMILES | HTRF pIC50 [1] | HTRF pIC50 [2] | activity in the HTRF assay
1 | Cn1c(=O)n(CCC(C)(C)O)c2cc(Nc3nc(-n4ccc(C(F)(F)F)n4)ncc3Cl)c(F)cc21 [Example 20r] | 6.53 | – | –
2 | CCC(Cn1c(=O)n(C)c2ccc(Nc3ccnc(Cl)c3C#N)cc21)N(C)C (stereo not drawn) [Example 25b, 2-chloro-4-((3-(2-(dimethylamino)butyl)-1-methyl-2-oxo-2,3-dihydro-1H-benzo[d]imidazol-5-yl)amino)nicotinonitrile: formic acid (1:1)] | 5.34 | – | –
3 | CCOC(=O)c1cc(Nc2ccc3c(c2)n(CC(O)CC)c(=O)n3C)n2ncc(F)c2n1 (stereo not drawn) [Example 1r, Ethyl 3-fluoro-7-((3-(2-hydroxybutyl)-1-methyl-2-oxo-2,3-dihydro-1H-benzo[d]imidazol-5-yl)amino)pyrazolo[1,5-a]pyrimidine-5-carboxylate] | 5.91 | 5.39 | –
4 | CC(=O)NC(C)CCn1c(=O)n(C)c2ccc(Nc3ccnc(Cl)c3C#N)cc21 (stereo not drawn) [Example 13, N-[3-[6-[(2-Chloro-3-cyano-4-pyridyl)amino]-3-methyl-2-oxo-benzimidazol-1-yl]-1-methyl-propyl]acetamide] | – | 5.75 | –
5 | Cn1c(=O)n(C[C@@H]2CCCN2CCF)c2cc(Nc3ccnc(Cl)c3C#N)ccc21 [Example 25f, (S)-2-chloro-4-((3-((1-(2-fluoroethyl)pyrrolidin-2-yl)methyl)-1-methyl-2-oxo-2,3-dihydro-1H-benzo[d]imidazol-5-yl)amino)nicotinonitrile: formic acid (1:1)] | 5.73 | – | –
6 | CC1OCCC1Cn1c(=O)n(C)c2ccc(Nc3ccnc(Cl)c3C#N)cc21 (stereo not drawn) [Example 19b] | 5.55 | – | –
7 | CN1CC(C)(CCn2c(=O)n(C)c3ccc(Nc4ccnc(Cl)c4C#N)cc32)OC1=O (stereo not drawn) [Example 33, 2-chloro-4-((3-(2-(3,5-dimethyl-2-oxooxazolidin-5-yl)ethyl)-1-methyl-2-oxo-2,3-dihydro-1H-benzo[d]imidazol-5-yl)amino)nicotinonitrile] | 5.43 | – | –
8 | COc1c(Cl)ncnc1Nc1ccc2c(c1)n(C)c(=O)n2C [5-((6-chloro-5-methoxypyrimidin-4-yl)amino)-1,3-dimethyl-1,3-dihydro-2H-benzo[d]imidazol-2-one] | – | – | did not exhibit the desired activity
9 | COC(=O)C(C)CCn1c(=O)n(C)c2ccc(Nc3cc(C(=O)N(C)C)nc(Cl)c3C#N)cc21 (stereo not drawn) [Example 7c, Methyl 4-[6-[[2-chloro-3-cyano-6-(dimethylcarbamoyl)-4-pyridyl]amino]-3-methyl-2-oxo-benzimidazol-1-yl]-2-methyl-butanoate] | – | 5.57 | –
10 | CN1CC(Cn2c(=O)n(C)c3ccc(Nc4nc(N5CC(C)(C)OC(C)(C)C5)ncc4Cl)cc32)(C(C)(C)O)OC1=O (stereo not drawn) [Example 20b] | 6.01 | – | –
11 | Cn1c(=O)n(CCC(C)(C)O)c2cc(Nc3nc(-c4cccs4)ncc3Cl)ccc21 [Example 23d] | 5.62 | – | –
12 | COC(=O)C1CCCC1Cn1c(=O)n(C)c2ccc(Nc3ccnc(Cl)c3C#N)cc21 (stereo not drawn) [Example 11, Methyl 2-[[6-[(2-chloro-3-cyano-4-pyridyl)amino]-3-methyl-2-oxo-benzimidazol-1-yl]methyl]cyclopentanecarboxylate] | 5.72 | 5.71 | –
13 | C[C@@H]1CN(c2cc(Nc3ccc4c(c3)n(CCC(C)(C)O)c(=O)n4C)c(Cl)cn2)C[C@H](C)O1 [Example 36b, 5-((5-chloro-2-((2R,6S)-2,6-dimethylmorpholino)pyridin-4-yl)amino)-3-(3-hydroxy-3-methylbutyl)-1-methyl-1,3-dihydro-2H-benzo[d]imidazol-2-one] | 5.99 | – | –
14 | Cc1ccn(-c2ncc(Cl)c(Nc3ccc4c(c3)n(CCC(C)(C)O)c(=O)n4C)n2)n1 [Example 16a, 5-((5-chloro-2-(3-methyl-1H-pyrazol-1-yl)pyrimidin-4-yl)amino)-3-(3-hydroxy-3-methylbutyl)-1-methyl-1,3-dihydro-2H-benzo[d]imidazol-2-one] | 6.38 | – | –
15 | Cn1c(=O)n(CCC(C)(C)O)c2cc(Nc3nc(-n4cc(C(F)(F)F)cn4)ncc3Cl)ccc21 [Example 20s] | 6.26 | – | –
16 | CCOC(=O)c1cc(Nc2ccc3c(c2)n(CCC(C)C(=O)OC)c(=O)n3C)c(C#N)c(Cl)n1 (stereo not drawn) [Example 2b, Ethyl 6-chloro-5-cyano-4-[[3-(4-methoxy-3-methyl-4-oxo-butyl)-1-methyl-2-oxo-benzimidazol-5-yl]amino]pyridine-2-carboxylate] | 6.10 | 6.19 | –
17 | C[C@@H]1CN(c2ncc(Cl)c(Nc3cc4c(cc3F)n(C)c(=O)n4CCC(C)(C)O)n2)C[C@H](C)O1 [Example 20p] | 6.44 | – | –
18 | COC(=O)C(C)CCn1c(=O)n(C)c2ccc(Nc3cc(C(=O)OC(C)C)nc(Cl)c3C#N)cc21 (stereo not drawn) [Example 2c, Isopropyl 6-chloro-5-cyano-4-[[3-(4-methoxy-3-methyl-4-oxo-butyl)-1-methyl-2-oxo-benzimidazol-5-yl]amino]pyridine-2-carboxylate] | – | 6.10 | –
19 | C#CCC(C)(O)CCn1c(=O)n(C)c2ccc(Nc3ccnc(Cl)c3C#N)cc21 (stereo not drawn) [Example 27a, 2-chloro-4-((3-(3-hydroxy-3-methylhex-5-yn-1-yl)-1-methyl-2-oxo-2,3-dihydro-1H-benzo[d]imidazol-5-yl)amino)nicotinonitrile] | 5.86 | – | –
20 | COC(=O)C(C)CCn1c(=O)n(C)c2ccc(Nc3nc(C)ncc3Cl)cc21 (stereo not drawn) [Example 3c, Methyl 4-[6-[(5-chloro-2-methyl-pyrimidin-4-yl)amino]-3-methyl-2-oxo-benzimidazol-1-yl]-2-methyl-butanoate] | 5.37 | 5.37 | –
21 | COC(=O)C(C)Cn1c(=O)n(C)c2ccc(Nc3ccnc(Cl)c3C#N)cc21 (stereo not drawn) [Example 3b, Methyl 3-[6-[(2-chloro-3-cyano-4-pyridyl)amino]-3-methyl-2-oxo-benzimidazol-1-yl]-2-methyl-propanoate] | 5.35 | 5.39 | –
22 | Cn1c(=O)n(CCC(C)(C)O)c2cc(Nc3cc4nccn4cc3Cl)ccc21 [5-((6-chloroimidazo[1,2-a]pyridin-7-yl)amino)-3-(3-hydroxy-3-methylbutyl)-1-methyl-1,3-dihydro-2H-benzo[d]imidazol-2-one] | – | – | did not exhibit the desired activity
23 | CCNC(=O)c1cc(Nc2ccc3c(c2)n(CCC(C)(C)O)c(=O)n3C)c(Cl)cn1 [Example 14, 5-Chloro-N-ethyl-4-[[3-(3-hydroxy-3-methyl-butyl)-1-methyl-2-oxo-benzimidazol-5-yl]amino]pyridine-2-carboxamide] | 6.29 | 6.05 | –
24 | Cc1nc(C)c(-c2ncc(Cl)c(Nc3ccc4c(c3)n(CCC(C)(C)O)c(=O)n4C)n2)s1 [Example 23c] | 5.99 | – | –

The next lines start with the values.

Row | HTRF pIC50 [1] | HTRF pIC50 [2] | activity in the HTRF assay | SMILES
25 | 6.54 | – | – | Cn1c(=O)n(CCC(C)(C)O)c2cc(Nc3nc(N4CCCC(CN5CCOCC5)C4)ncc3Cl)ccc21 (stereo not drawn) [Example 42d, 5-((5-chloro-2-(3-(morpholinomethyl)piperidin-1-yl)pyrimidin-4-yl)amino)-3-(3-hydroxy-3-methylbutyl)-1-methyl-1,3-dihydro-2H-benzo[d]imidazol-2-one]
26 | 5.48 | – | – | Cn1c(=O)n(CCC(C)(C)O)c2cc(Nc3cc(C(F)(F)F)ncc3Cl)ccc21 [Example 29d, 5-((5-chloro-2-(trifluoromethyl)pyridin-4-yl)amino)-3-(3-hydroxy-3-methylbutyl)-1-methyl-1,3-dihydro-2H-benzo[d]imidazol-2-one]
27 | 5.88 | – | – | CN(C)C(=O)C1CCN(c2cc(Nc3ccc4c(c3)n(CCC(C)(C)O)c(=O)n4C)c(Cl)cn2)CC1 [Example 36c, 1-(5-chloro-4-((3-(3-hydroxy-3-methylbutyl)-1-methyl-2-oxo-2,3-dihydro-1H-benzo[d]imidazol-5-yl)amino)pyridin-2-yl)-N,N-dimethylpiperidine-4-carboxamide]
28 | 5.38 | – | – | Cn1c(=O)n(CCC(C)(C)O)c2cc(Nc3ccncc3Br)ccc21 [Example 29c, 5-((3-bromopyridin-4-yl)amino)-3-(3-hydroxy-3-methylbutyl)-1-methyl-1,3-dihydro-2H-benzo[d]imidazol-2-one]
29 | 6.00 | – | – | Cn1c(=O)n(CCC(C)(C)O)c2cc(Nc3nc(N4CCCC(c5ccccc5)C4)ncc3Cl)ccc21 (stereo not drawn) [Example 35za, 5-((5-chloro-2-(3-phenylpiperidin-1-yl)pyrimidin-4-yl)amino)-3-(3-hydroxy-3-methylbutyl)-1-methyl-1,3-dihydro-2H-benzo[d]imidazol-2-one]
30 | 6.88 | – | – | Cn1c(=O)n(CCC(C)(C)O)c2cc(Nc3nc(N4CCC(N5CCOCC5)CC4)ncc3Cl)ccc21 [Example 42h, 5-((5-chloro-2-(4-morpholinopiperidin-1-yl)pyrimidin-4-yl)amino)-3-(3-hydroxy-3-methylbutyl)-1-methyl-1,3-dihydro-2H-benzo[d]imidazol-2-one]
31 | 6.09 | – | – | Cn1c(=O)n(CCC(C)(C)O)c2cc(Nc3nc(OCC(F)(F)F)ncc3Cl)ccc21 [Example 39a, 5-((5-Chloro-2-(2,2,2-trifluoroethoxy)pyrimidin-4-yl)amino)-3-(3-hydroxy-3-methylbutyl)-1-methyl-1,3-dihydro-2H-benzo[d]imidazol-2-one]
32 | 5.74 | – | – | CC(C)(O)CCn1c(=O)n(CCC(C)(C)O)c2c(Cl)cc(Nc3nc(N4CC(C)(C)OC(C)(C)C4)ncc3Cl)cc21 [Example 35u, 4-chloro-6-((5-chloro-2-(2,2,6,6-tetramethylmorpholino)pyrimidin-4-yl)amino)-1,3-bis(3-hydroxy-3-methylbutyl)-1,3-dihydro-2H-benzo[d]imidazol-2-one]
33 | 6.15 | – | – | C[C@@H]1CN(c2ncc(Cl)c(Nc3ccc4c(c3)n(CCC(C)(C)O)c(=O)n4C)n2)C[C@@H]1C [Example 35p, 5-((5-chloro-2-((3R,4S)-3,4-dimethylpyrrolidin-1-yl)pyrimidin-4-yl)amino)-3-(3-hydroxy-3-methylbutyl)-1-methyl-1,3-dihydro-2H-benzo[d]imidazol-2-one]
